Experimental data taken from patent publication US20060223812A1, “Treating neurodegenerative conditions” (MAX-PLANCK-GESELLSCHAFT ZUR FORDERUNGDER WISSENSCHAFTEN, …, priority 2004, published 2006).

Molecular target: htau40 and tubulin dimer (Homo sapiens, UniProt P10636)
Test: Light scattering, tau-promoted microtubule assembly
Type: biochemical
Conditions: 60 μM compound, 10 μM tau, 30 μM tubulin
Experimental: The repeat domain of tau is not only important for PHF aggregation but also for the physiological function of microtubule binding. Microtubule polymerisation assays were performed in the absence and presence of compounds (FIG. 9).
The ability of tau to promote microtubule assembly was monitored by light scattering at 350 nm in a Tecan spectrophotometer model Safire (Tecan, Crailsheim, Germany). Tau protein (10 μM) was mixed with tubulin dimer (30 μM) and GTP (1 mM) at 4° C. in polymerisation buffer (100 mM Na-PIPES pH 6.9, 1 mM EGTA, 1 mM MgSO4, 1 mM DTT), with a final volume of 40 μl. Htau40 and inhibitor compounds (60 μM) were added last. After rapid mixing, the samples were pipetted into a Greiner transparent flat bottom 384 well plate (4 mm path length), which was prewarmed at 37° C. The reaction was started by incubating the cooled components of the reaction at 37° C. The assembly of tubulin into microtubules was monitored over time by a change in turbidity. Three parameters were extracted from curves. The maximum turbidity at steady state, the rate of assembly, and the lag time between the temperature jump and the start of the turbidity rise.
FIG. 9: Effect of compounds on microtubule binding 30 μM tubulin dimer was incubated in a microtiter plate at 37° C. in the absence and presence of htau40 (10 μM) and 60 μM compound. Absorbance was taken at 350 nm and plotted versus time. […]

htau40 and tubulin dimer, sequence (P10636 1-441 isoform P10636-8): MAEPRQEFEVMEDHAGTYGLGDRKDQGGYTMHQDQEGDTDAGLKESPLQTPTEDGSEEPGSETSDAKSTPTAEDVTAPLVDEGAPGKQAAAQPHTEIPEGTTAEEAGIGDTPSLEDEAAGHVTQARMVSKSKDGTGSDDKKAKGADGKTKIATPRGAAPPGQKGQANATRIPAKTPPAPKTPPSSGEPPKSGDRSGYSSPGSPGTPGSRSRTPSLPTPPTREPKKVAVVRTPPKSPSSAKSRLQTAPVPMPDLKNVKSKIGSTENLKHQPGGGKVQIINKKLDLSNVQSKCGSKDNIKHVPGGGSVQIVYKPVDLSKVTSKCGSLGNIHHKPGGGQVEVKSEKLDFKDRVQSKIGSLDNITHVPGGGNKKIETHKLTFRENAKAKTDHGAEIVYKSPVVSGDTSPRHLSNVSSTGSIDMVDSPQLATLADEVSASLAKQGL

rate and extent of microtubule polymerisation: not significantly affected
SMILES: Nc1c(/N=N/c2ccc(-c3ccc(/N=N/c4cc(S(=O)(=O)O)c5ccccc5c4N)cc3)cc2)cc(S(=O)(=O)O)c2ccccc12 [Congo Red]
